Assay results as given in ChEMBL document CHEMBL4706582, “Design, synthesis and molecular docking study of α-triazolylsialosides as non-hydrolyzable and potent CD22 ligands” (Eur J Med Chem, 2020).

Legend:
B-cell receptor CD22 = molecular target: T1, B-cell receptor CD22 (Homo sapiens, UniProt P20273); assay: Binding affinity to recombinant human CD22d1-3-Fc expressed in 293T cells by surface plasmon resonance assay; design: species or system HEK293T
T1 sequence (P20273 whole entry): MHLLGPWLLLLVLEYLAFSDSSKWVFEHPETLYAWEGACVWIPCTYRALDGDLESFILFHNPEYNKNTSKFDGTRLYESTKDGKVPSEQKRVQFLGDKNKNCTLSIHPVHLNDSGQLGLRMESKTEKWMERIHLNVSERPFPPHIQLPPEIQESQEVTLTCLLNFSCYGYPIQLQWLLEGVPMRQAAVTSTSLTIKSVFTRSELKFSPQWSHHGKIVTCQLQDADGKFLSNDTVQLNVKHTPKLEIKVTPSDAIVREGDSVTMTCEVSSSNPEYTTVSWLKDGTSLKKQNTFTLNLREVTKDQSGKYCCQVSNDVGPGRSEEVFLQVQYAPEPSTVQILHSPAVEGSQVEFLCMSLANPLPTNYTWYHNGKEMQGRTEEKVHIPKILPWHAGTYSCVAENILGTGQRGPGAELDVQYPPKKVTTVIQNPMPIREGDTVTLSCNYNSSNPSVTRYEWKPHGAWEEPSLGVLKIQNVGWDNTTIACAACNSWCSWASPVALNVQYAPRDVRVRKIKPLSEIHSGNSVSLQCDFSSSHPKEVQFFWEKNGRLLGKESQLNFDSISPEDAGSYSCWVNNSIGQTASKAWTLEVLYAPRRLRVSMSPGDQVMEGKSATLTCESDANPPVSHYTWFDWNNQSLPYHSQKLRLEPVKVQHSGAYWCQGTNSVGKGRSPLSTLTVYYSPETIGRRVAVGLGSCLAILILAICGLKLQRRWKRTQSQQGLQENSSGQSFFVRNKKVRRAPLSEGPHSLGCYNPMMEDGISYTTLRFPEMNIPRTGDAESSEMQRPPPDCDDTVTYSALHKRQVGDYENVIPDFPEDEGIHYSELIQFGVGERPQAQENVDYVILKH

[1] = molecular target: T2, Myelin-associated glycoprotein (Homo sapiens, UniProt P20916); assay: Binding affinity to human MAG by surface plasmon resonance assay
T2 sequence (P20916 whole entry): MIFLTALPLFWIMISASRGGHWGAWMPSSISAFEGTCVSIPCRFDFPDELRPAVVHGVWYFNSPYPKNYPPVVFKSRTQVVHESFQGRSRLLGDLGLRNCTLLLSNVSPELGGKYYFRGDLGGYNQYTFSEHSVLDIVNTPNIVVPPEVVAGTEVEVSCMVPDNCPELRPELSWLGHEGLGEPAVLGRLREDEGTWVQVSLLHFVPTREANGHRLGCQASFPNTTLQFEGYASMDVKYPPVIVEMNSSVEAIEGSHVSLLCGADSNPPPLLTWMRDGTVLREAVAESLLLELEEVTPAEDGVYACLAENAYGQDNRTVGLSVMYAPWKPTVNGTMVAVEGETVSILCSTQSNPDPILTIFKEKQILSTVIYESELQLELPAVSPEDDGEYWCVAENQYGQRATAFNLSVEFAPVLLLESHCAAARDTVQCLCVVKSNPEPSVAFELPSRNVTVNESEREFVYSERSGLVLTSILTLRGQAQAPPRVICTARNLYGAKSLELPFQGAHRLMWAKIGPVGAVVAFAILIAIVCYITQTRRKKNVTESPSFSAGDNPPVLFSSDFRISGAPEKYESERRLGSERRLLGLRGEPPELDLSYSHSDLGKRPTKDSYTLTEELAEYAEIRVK

Homo sapiens = species on record: Homo sapiens; assay: Selectivity index, ratio of Kd for human MAG to Kd for human CD22

C#Cc1ccc(CO[C@]2(C(=O)O)C[C@H](O)[C@@H](NC(=O)CO)[C@H]([C@H](O)[C@H](O)CNC(=O)Cc3ccc(-c4ccc(O)cc4)cc3)O2)cc1
Kd (B-cell receptor CD22): 0.628 µM

O=C(Cc1ccc(-c2ccc(O)cc2)cc1)NC[C@@H](O)[C@@H](O)[C@@H]1O[C@](C(=O)O)(n2cc(Cc3ccccc3)nn2)C[C@H](O)[C@H]1NC(=O)CO
Kd (B-cell receptor CD22): 0.952 µM

O=C(Cc1ccc(-c2ccc(O)cc2)cc1)NC[C@@H](O)[C@@H](O)[C@@H]1O[C@](C(=O)O)(n2cc(CC3CCCCC3)nn2)C[C@H](O)[C@H]1NC(=O)CO
Kd (B-cell receptor CD22): 0.766 µM

O=C(Cc1ccc(-c2ccc(O)cc2)cc1)NC[C@@H](O)[C@@H](O)[C@@H]1O[C@](C(=O)O)(n2cc(-c3ccccc3)nn2)C[C@H](O)[C@H]1NC(=O)CO
Kd [1]: 30.7 µM
Selectivity Index (Homo sapiens): 91.6
Kd (B-cell receptor CD22): 0.335 µM

O=C(Cc1ccc(-c2ccc(O)cc2)cc1)NC[C@@H](O)[C@@H](O)[C@@H]1O[C@](C(=O)O)(n2cc(COC3CCCCC3)nn2)C[C@H](O)[C@H]1NC(=O)CO
Kd (B-cell receptor CD22): 0.86 µM

O=C(CCCC[C@H]1SC[C@H]2NC(=O)N[C@H]21)NCCOCCOCCOCCn1cc(-c2ccc(CO[C@]3(C(=O)O)C[C@H](O)[C@@H](NC(=O)CO)[C@H]([C@H](O)[C@H](O)CNC(=O)Cc4ccc(-c5ccc(O)cc5)cc4)O3)cc2)nn1
Kd (B-cell receptor CD22): 0.74 µM

O=C(Cc1ccc(-c2ccc(O)cc2)cc1)NC[C@@H](O)[C@@H](O)[C@@H]1O[C@](C(=O)O)(n2cc(-c3ccc(-c4ccccc4)cc3)nn2)C[C@H](O)[C@H]1NC(=O)CO
Kd (B-cell receptor CD22): 0.62 µM

O=C(Cc1ccc(-c2ccc(O)cc2)cc1)NC[C@@H](O)[C@@H](O)[C@@H]1OC(OCc2ccccc2)(C(=O)O)CC(O)[C@H]1NC(=O)CO (single isomer, unassigned)
Kd [1]: 56.4 µM
Selectivity Index (Homo sapiens): 123
Kd (B-cell receptor CD22): 0.458 µM
